# According to patent US20060257875A1, “Affinity screening using "one-bead-one-compound" libraries” (Carlsberg A/S, priority 2003, published 2006):
# Values joined by “and” are separate entries in the source; they are usually repeats but may differ in a detail not shown here. Identical values can stand only once. “Also recorded” adds a separate entry of the source. Starred links: 1 amine or outer side, 2 acyl side, 3 side chain; linkers in the order of their positions; H or OH if unused. Non-standard residues stand in square brackets, D forms with d. Primed or numbered codes have the meaning given here. No end group written: not given here. Gua = 4-S-(Di-Boc-guanidino)-L-proline, CC(C)(C)OC(=O)N=C(NC(=O)OC(C)(C)C)N[C@H]1C[C@@H](C(=O)[*:2])N([*:1])C1; Pip′ = 4-phenyl-piperidine-4-carboxylic acid, O=C(C1(c2ccccc2)CCN([*:1])CC1)[*:2]; Hyp = O=C(O)[C@@H]1C[C@@H](O)CN1; 3Pal = N[C@@H](Cc1cccnc1)C(=O)O
# Legend:
# [1] = system: basal myocyte protein; assay: Solid phase screening of Library 6 with unlabeled myocyte proteins; silver staining, on-bead tryptic digest; type: binding, neonatal Wistar rats; settings: Normal Myocytes
# Description: (§1) Myocytes were prepared from 1 to 5 day old neonatal Wistar rats (University of Copenhagen) according to literature procedure described in Busk et al., 2002, Cardiovasc. Res., 56: 64-75 and plated into eight P10 culture plates at 6 million cells/plate.
# Isolated proteins that bound to specific ligands were identified using peptide mass fingerprinting. Mass spectra were recorded on a Bruker Reflex m MALDI time-of-flight mass spectrometer (Bruker-Daltonics, Bremen, Germany) operated in the positive reflectron mode using delayed extraction. Measurements were performed using the following parameters: Power 83-84 V; lens 7.300. The sum of 200-300 shots was used for each spectrum.
# The spectra were calibrated using bradykinin peptide. In some cases, internal mass calibration was performed using a porcine trypsin autolysis product Peptide masses were searched against peptide mass maps in the National Center for Biotechnology Information (NCBI) database using the following search engines found on the world wide web (www.) for each of: • MS-FIT (prospector.ucsf.edu/ucsfhtml/msfit.htm), • Profound (129.85.19.192/profound_biniWebProFound.exe), and • MASCOT (matrixscience.com).
# A search was performed using the NCBI bacterial (E. coli) database and the mammalian databases for the isolated proteins from the E. coli and myocyte samples, respectively, and the Swiss Prot mammalian databases and the Swiss Prot viral databases were searched to identify the porcine macrophage proteins and proteins, respectively. A molecular mass range was estimated from 0-250 K Da, allowing a mass accuracy that varied from 0.1 Da (some cases 0.3 Da) for each peptide mass. A large pI range from 0-14 or 0-12 was considered for each search. If no proteins matched, the mass window was extended. Partial enzyme cleavages allowing for two missed cleavage sites and modification of cysteine by alkylation were considered in the search approaches. A protein was considered identified if the matched peptides covered at least 30% of the complete sequence. A match of less than 30% was considered in some cases, if prominent peaks were obtained. Usually, four or more peptides were used for identification. In some instances, hypothetical proteins or gene products, such as biochemical material, either RNA or protein, calculated from the expected expression of a gene and to which a function may be assigned based on sequence homology, were identified.
# Protein was extracted from myocytes prepared as described above for Example 9, using a new procedure (to preserve the activity of metalloproteases) modified from existing protocols, primarily: Amott, et al., 1998, Anal. Biochem. 258: 1-18. The media was removed from plates and cells were washed with ice cold phosphate buffer (5 ml, 10 mM, pH 7.5, supplemented with 0.15 M NaCl,) to remove traces of media components. The adhered cells were treated for 10 minutes with ice cold phosphate buffer (2 mL, 10 mM, pH 7.5, augmented with 0.15 M NaCl, […] E-64, 10 μg/mL Leupeptin, and 10 μg/mL Pepstatin A). The cells were scraped off the plates and then lysed (on ice) in a sonicator (2×) using 10 seconds off/110 seconds on cycles.
# (§2) The resulting suspension was augmented with CHAPS (1% w/v), KCl (50 mM), NaCl (0.5 M), ZnCl2 (0.1 mM), DTT (5 mM), and urea (2 M). After 10-15 minutes on ice, the solution was centrifuged for 10 minutes at 15,000 rpm at 4° C. The supernatant was removed and protein content quantified using the NanoOrange Protein test (Molecular Probes, Eugene, Oreg.): Total protein recovered: 195 μg for PE-induced cells and 200 μg for basal cells.
# The protein solutions were dialyzed extensively against 20 mM MES (2-[N-Morpholino]ethanesulfonic acid) buffer pH 6.0, supplemented with 0.15 M NaCl and 1 mM ZnCl2 to remove excess detergent and urea. […]
# [2] = system: normal (basal) myocyte protein mixtures; assay: Solid phase screening of Library 1 with labeled myocyte proteins; bound proteins identified by on-bead digest and peptide mass fingerprinting; type: binding, neonatal Wistar rats; settings: Library 1 ligand on PEGA4000 bead; Normal Myocytes; proteins primarily present in basal cells
# Description: as §1
# (§3) Protein was extracted from myocytes prepared as described above for Example 9, using a new procedure modified from existing protocols, primarily: Arrott, et al., 1998, Anal Biochem. 258: 1-18. The media was removed from plates and adhered cells were treated for 10 minutes with ice cold phosphate buffer (0.25 mL, 10 mM, pH 7.5, augmented with 0.15 M NaCl 60 mM Benzamidine HCl, 5 mM EDTA, 10 μg/n E-64, 10 μg/mL Leu-peptin, 10 μg/mL Pepstatin A, and 1 mM PMSF). The cells were scraped off the plates and then lysed (on ice) in a sonicator (2×) using 10 seconds off/10 seconds on cycles.
# as §2, with “with CHAPS, DTT, and urea to a final concentration of” for “with”, “w/v),” for “w/v), KCl (50 mM), NaCl (0.5 M), ZnCl2 (0.1 mM),”, “(8” for “(2”, “70.5” for “195”, “PE-treated” for “PE-induced”, “60” for “200”
# (§4) Fluorescent dye Oregon Green 514 (OR) (Molecular Probes) was used to label the healthy/basal cells while Rhodamine Red (RR) (Molecular Probes) was used to label the PE-treated cells. The labeling procedures were carried out according to the manufacturer's protocol. The protein solutions (0.25 mL, 50.4 μg for PE cells and 0.25 mL, 42.8 μg for basal cells) were dialyzed against a solution of 10 mM phosphate buffer, 0.15 M NaCl, pH 7.5 and then 1 M NaHCO3 (0.025 mL) added to a final pH of 8.5. 10 μL of dye in dry DMF (10 mg/mL) was added and the sample stirred at room temperature for 2 hours. The protein solution was dialyzed extensively against 10 mM phosphate buffer, 0.15 M NaCl, pH 7.5, to remove excess dye.
# (§5) Ligand library 1 (200 mg), prepared as described for Example 5, was transferred to a syringe fitted with a stop-valve and the ligand-beads were washed for 10 minutes (3×) with 10 mM phosphate buffer, pH 6.8, supplemented with 0.15 M NaCl, 1 mM Ca^2+, 1 mM Zn^2+, 1 mM Mn^2+, 1 mM Cu^2+, and 1 mM Mg^2+ (3 mL). The ligand-beads were treated with a 1% BSA solution for 30 minutes, then washed with buffer (1×). A mixture of labeled myocyte proteins, including both PE-induced protein (138 μL, 40 μg) and basal protein (167 μL, 40 μg) obtained as described above for Example 11, was prepared in 1.2 mL buffer, and added to the ligand library in the syringe. The proteins and ligand library were incubated at room temperature for 16 hours. The library was then washed with buffer for 5 minutes then with water for 3×5 minutes. The library was examined under a fluorescence microscope and brightly fluorescent red, green, and yellow beads (yellow indicative of both dyes red and green binding; the majority of the beads) were present, as well as unlabelled beads. The fluorescent beads were separated and retained for analysis.
# (§6) The fluorescent ligand library beads containing bound protein obtained as described in Example 15 were sorted using a COPAS (250) NF Bead Sorter (Union Biometrica, Somerville, Mass.) equipped with a single flourescence emission. Beads emitting fluorescence of only one color contain proteins from one physical state, e.g. proteins expressed only in the PE-induced hypertrophic state (red) or proteins expressed only in the basal state (green). Since the instrument measures one fluorescence emission at a time, beads containing one type of color fluorescence were first sorted and then beads were resorted for emissions from the other fluorescence color. The library was first sorted such that all beads containing significant green fluorescence, basal proteins from healthy myocytes, were isolated. […]
# [3] = system: phenylephrine (PE)-treated myocyte proteins; assay: as above; type: binding, neonatal Wistar rats; settings: Library 1 ligand on PEGA4000 bead; Phenylephrine Treated (Hyperthrophic) Myocytes
# Description: as §1, §3
# as §2, with “with CHAPS, DTT, and urea to a final concentration of” for “with”, “w/v),” for “w/v), KCl (50 mM), NaCl (0.5 M), ZnCl2 (0.1 mM),”, “(8” for “(2”, “70.5” for “195”, “PE-treated” for “PE-induced”, “60” for “200”
# as §4, §5, §6
# [4] = system: six protein mixture: Con A, P. sativum lectin, L. culinaris lectin, W. floribunda lectin, Glyceraldehyde 6-phosphate, bovine serum albumin; assay: Solid phase screening of Library 3 with labeled six protein mixture; affinity purification, gel electrophoresis and Edman degradation; type: binding; settings: six protein mixture; for Identified Protein(s): Library 3 ligand on PEGA6000 resin
compound,measurement,setting,value
CCOC(=O)C1CCCCC1NC(CCCCN)C(=O)N[C@@H](C)C(=O)O (some centres unmarked),Identified Protein(s),[1],Golgi coiled coil protein GCC185 (Q8CHG3).
Phe-Thr-Pya-Pip-Asp-His (FT[3Pal][Pip′]DH),Identified Protein(s),[2],(Sodium channel (gi 18591322) (M); Chloride channel (gi and 6978663/4502867) (M)) Troponin I (gi 1351298);; Zn Fin- and ger protein (gi 18591322) (MA); SPTR (peroxisomal Ca and dependent solute carrier (putative) (gi 12853685); and Beta-2 adnergic receptor (gi 12699028)
FTYFAK,Identified Protein(s),[2],Serine/threonine Protein kinase (gi 5730055); Carbonic; also recorded: anhydrase VII (gi 10304383)
Pal-Gly-Abi-Hyp-Pya-Trp,Identified Protein(s),[3],NAS putative unclassified (gi 12861084); Putative Zn; also recorded: finger protein 64 (gi 12849329)
Phe-Ppy-Acc-Ala-Ppy-Hpy,Identified Protein(s),[2],Hypothetical proteins; Troponin T gi 547047;; (Phospho-; also recorded: lipase C (MA); Phosphatidyicholine sterol acyl trans-; also recorded: ferase (400167;LCAT-PIG_9))
Abi-Phe-Abi-Phe-Che-Tyr,Identified Protein(s),[3],Cathepsin E (gi 4503145); Ribosomal proteins (60s L; also recorded: series) (gi 20826861)
HTWGYW,Identified Protein(s),[4],Con A
same,selectivity of binding among the lectins,[4],binds selectively to Con A
GlcNN-Val-GlcNN-His-ManS-Gly,Identified Protein(s),[4],"Con A, P. sativum; also recorded: lectin"
Lys-Met-Hyp-Trp-Tyr-Gun (KM[Hyp]WY[Gua]),Identified Protein(s),[3],Cell surface glycoprotein (gi 23603627); Hypothetical; also recorded: protein (XP-179829; gi 14720727)
CCCCCCNC(=O)C(CCCCN)NC1CCCCC1C(=O)OCC (centres unmarked),Identified Protein(s),[1],"Inward rectifier potassium channel 13 (Q9QZ65, IRKD_CAVPO); Sulfonylurea receptor 2 (Q63563); small conductance potassium channel (P58391)."
CCCCCCNC(=O)C(CCCCN)NC(C(C)C)C(C)C (centres unmarked) [drawing 170],Identified Protein(s),[1],Heat Shock protein 70 kDa protein 12A (Q8KOU4); Ser- ine/threonine protein kinase (O88866); Ras GTPase acti- vating protein 2 (GAP1m) (58069).
Pya-Hyp-Hyp-Phe-Acm-Tyr,Identified Protein(s),[2],"Troponin T (gi 547047); Ca2+/Calmodulin activated My-; also recorded: osin light chain kinase (gi 284660) (LA, MA); cGMP-; also recorded: dependent protein kinase (gi 284660) (LA)"
Phe-Phe-Phe-Pip-Aze-Gua,Identified Protein(s),[2],Phosphatidyl choline-sterol acyl transferase (400167;; also recorded: LCAT-PIG_9)
